Test results published in patent US20180353512A1, “COMBINATION THERAPIES FOR TREATING B-CELL MALIGNANCIES” (GILEAD SCIENCES, INC., priority 2015, published 2018).

Key:
[1] = test system: pAKT (Ser 473); assay: TMD-8 Western Blots; type: cell-based; conditions: for pAKT (Ser 473), Western Blot: TMD-8
Experimental: (§1) Western Blot samples were prepared by lysing 10^6 cells for 30 minutes in 150 μL ice-cold lysis buffer. Protease Inhibitor Cocktail (Roche Diagnostics Corp), and phosphatase inhibitor sets 1 and 2 (EMD Millipore) were also added to the lysis buffer (Cell Signaling Technology). Cells were centrifuged at 12.5 g for 10 minutes at 4° C.; supernatant was collected and transferred to new tube. Sample buffer was added to each lysate, and then boiled at 99° C. for 5 minutes. Protein was loaded into an SDS-PAGE gel and run for 2 h at 125V. After electrophoresis, gel was transferred to Immobilon-F membrane using the X Cell Blot. The membrane was then blocked for 1 h at room temperature in blocking buffer and incubated overnight with primary antibodies diluted in a blocking buffer. The following day, the membranes were washed 3× (5 min each) with TBST; secondary antibodies were added and membrane was incubated for 45 minutes at room temperature, followed by 3×TBST (5 min each). Blots were read using Licor Imager. Primary antibodies included p-AKT (S473), p-BTK (Y223), BTK, p-ERK (T202/Y204), ERK, and actin (Cell Signaling Technologies), and secondary antibodies included IRDye-conjugated anti-mouse and anti-rabbit antibodies; LI-COR. Band intensity was measured using LI-COR imager and LI-COR Odyssey software.

[2] = test system: pBTK (Y223); assay: TMD-8 Western Blots; type: cell-based; conditions: for pBTK (Y223), Western Blot: TMD-8
Experimental: as §1

[3] = test system: pErk1/2 (T202/Y204); assay: TMD-8 Western Blots; type: cell-based; conditions: for pErk1/2 (T202/Y204), Western Blot: TMD-8
Experimental: as §1

[4] = test system: pERK T202/Y204; assay: Western Blot of TMD-8 Ibrutinib resistant lines; type: cell-based; conditions: idelalisib 420 nM, Compound B 320 nM
Experimental: as §1
(§2) Total protein expression levels and phosphorylation of PI3K, MAPK, BTK and NF-κB components were determined by Western Blot or Peggy Sue. Cells were treated with idelalisib (420 nM), Compound B (320 nM) or in combination. Protein expression level and phosphoproteomics were determined using Western Blot (p-ERK 1/2, p-AKT S473, total AKT) and Peggy Sue (p-BTK, p-IκBα S32, total IκBα), using procedures as described in Example 3B. Results were quantitated after determining the AUC for each group and normalized to DMSO vehicle control.

[5] = test system: pIκBa S32; assay: Peggy Sue analysis of TMD-8 Ibrutinib resistant lines; type: cell-based; conditions: idelalisib 420 nM, Compound B 320 nM
Experimental: Lysates were also analyzed by Simple Western using Peggy Sue (ProteinSimple). A standard curve using recombinant proteins was generated to measure PI3K isoform levels on Peggy Sue; data was processed using Compass software (ProteinSimple).
as §2

[6] = test system: p-AKT S473; assay: Western Blot / Peggy Sue in TMD8^R cells (Example 7); type: cell-based; conditions: idelalisib 420 nM, Compound B 320 nM
Experimental: (§3) Idelalisib-resistant (TMD8^R) cell line and passage-matched Idelalisib-sensitive (TMD8^S) cell line were generated according to the procedure described in Example 5 above. To characterize the resistant cells, cell viability assays, RNASeq of multidrug resistance (MDR) family of ABC transporter genes (N=33), apoptosis assays, and phosphoprotein analysis were performed. Cell viability was measured using CellTiter-Glo, as described in Example 1A above. Western blot and protein level analysis were performed after treatment with 420 nM idelalisib, 320 nM Compound B and combination thereof, using Peggy Sue (ProteinSimple) automated Western Blot system. Protein concentration (pg/μL) was quantitated using recombinant protein standards. Normalized AUC were determined for each of the treatment groups, normalized to actin. Apoptosis was assessed by propidium iodide and Annexin V/FITC staining and measured by flow cytometry, as described in Example 1A above. Western Blot with anti-p-AKT (S473) antibody and Peggy Sue were used to determine the phosphorylation state of downstream signaling components.

[7] = test system: p-BTK; assay: as above; type: cell-based; conditions: idelalisib 420 nM, Compound B 320 nM
Experimental: as §3

[8] = test system: TMD-8 cells with the BTK (C481F) mutation; assay: 96-hour Cell Titer Glo viability assay, Ibrutinib-resistant TMD-8; parameters: Emax: dose or concentration left out as unconfirmed; conditions: for sensitivity in cell viability assay: TMD8^BTK-C481F, 96 h
[9] = Homo sapiens, TMD8, FIG. 2E, single agent, idelalisib 420 nM, Compound B 320 nM, time not stated, read-out: inhibition to p-AKT (S473)
[10] = Homo sapiens, TMD8, FIG. 2E, single agent, idelalisib 420 nM, Compound B 320 nM, time not stated, read-out: inhibition to p-ERK (T202/Y204)
[11] = A20-Q143* line, normalized to DMSO control, DMSO 0.91
[12] = control line, normalized to DMSO vehicle control
[13] = A20-Q143* line, normalized to DMSO control, DMSO 1.39

## CC#CC(=O)N1CC[C@@H](n2c(=O)n(-c3ccc(Oc4ccccc4)cc3)c3c(N)ncnc32)C1 [Compound B, 6-amino-9-[(3R)-1-(2-butynoyl)-3-pyrrolidinyl]-7-(4-phenoxyphenyl)-7,9-dihydro-8H-purin-8-one]
[1]; [9]
  inhibition at 0.32 µM: 46%
[1]; 2 hr, DMSO 0.45
  pAKT (Ser 473), Western Blot: 0.24 normalized integrated intensity
[1]; 24 hr, DMSO 0.54
  pAKT (Ser 473), Western Blot: 0.35 normalized integrated intensity
[2]; Homo sapiens, TMD8, FIG. 2E, single agent, Compound B 320 nM, time not stated, read-out: inhibition of p-BTK (Y223)
  inhibition at 0.32 µM: 59%
[2]; 2 hr, DMSO 0.36
  pBTK (Y223), Western Blot: 0.16 normalized integrated intensity
[2]; 24 hr, DMSO 0.33
  pBTK (Y223), Western Blot: 0.14 normalized integrated intensity
[3]; [10]
  inhibition at 0.32 µM: 48%
[3]; 2 hr, DMSO 1.09
  pErk1/2 (T202/Y204), Western Blot: 0.47 normalized integrated intensity
[3]; 24 hr, DMSO 1.49
  pErk1/2 (T202/Y204), Western Blot: 0.93 normalized integrated intensity
[4]; [11]
  pERK T202/Y204: 0.76
[4]; [12]
  pERK T202/Y204: 0.35
[5]; [13]
  pIκBa S32: 1.12
[5]; [12]
  pIκBa S32: 0.62
[6]
  p-AKT: not
[7]
  p-BTK: inhibited
[8]
  sensitivity in cell viability assay: resistant

## CCC(Nc1ncnc2[nH]cnc12)c1nc2cccc(F)c2c(=O)n1-c1ccccc1 (centres unmarked) [Idelalisib, 2-(1-((9H-Purin-6-yl)amino)propyl)-5-fluoro-3-phenylquinazolin-4(3H)-one]
[1]; [9]
  inhibition at 0.42 µM: 58%
[1]; 2 hr, DMSO 0.45
  pAKT (Ser 473), Western Blot: 0.19 normalized integrated intensity
[1]; 24 hr, DMSO 0.54
  pAKT (Ser 473), Western Blot: 0.12 normalized integrated intensity
[2]; 2 hr, DMSO 0.36
  pBTK (Y223), Western Blot: 0.39 normalized integrated intensity
[2]; 24 hr, DMSO 0.33
  pBTK (Y223), Western Blot: 0.27 normalized integrated intensity
[3]; [10]
  inhibition at 0.42 µM: 71%
[3]; 2 hr, DMSO 1.09
  pErk1/2 (T202/Y204), Western Blot: 0.40 normalized integrated intensity
[3]; 24 hr, DMSO 1.49
  pErk1/2 (T202/Y204), Western Blot: 0.55 normalized integrated intensity
[4]; [11]
  pERK T202/Y204: 0.73
[4]; [12]
  pERK T202/Y204: 0.13
[5]; [13]
  pIκBa S32: 0.92
[5]; [12]
  pIκBa S32: 1.09
[6]
  p-AKT: inhibited
[7]
  p-BTK: not
[8]; Homo sapiens, TMD8, read-out: Emax, growth inhibition
  Emax: 14%
[8]
  sensitivity in cell viability assay: resistant
